Results: US11584765B2 (priority 2017, dated 2023)

Test system: C57BL/6 mice
Experiment: animal or person
Format: in vivo
Conditions: Mus musculus, sc, 0.5 h, s.c. administration, 30 min, 55° C. water, read-out: ED50 (mg/kg) at 30 min on C57BL/6 mice in Warm-water Tail-flick Test

SMILES | ED50
CCn1nnn(CCN2CCC(CCc3ccccc3)(C3CCCO3)C2)c1=O (centres unmarked) [Compound 192, 1-ethyl-4-(2-(3-phenethyl-3-(tetrahydrofuran-2-yl)pyrrolidin-1-yl)ethyl)-1H-tetrazol-5(4H)-one] | > 10 mg/kg
c1ccc(CCC2(C3CCCO3)CCN(Cc3cccn3-c3cccnc3)C2)cc1 (centres unmarked) [Compound 193, 3-(2-((3-phenethyl-3-(tetrahydrofuran-2-yl)pyrrolidin-1-yl)methyl)-1H-pyrrol-1-yl)pyridine] | > 10 mg/kg
c1ccc(CCC2(C3CCCO3)CCN(Cc3ccccc3-c3cccs3)C2)cc1 (centres unmarked) [Compound 194, 3-phenethyl-3-(tetrahydrofuran-2-yl)-1-(2-(thiophen-2-yl)benzyl)pyrrolidine] | > 10 mg/kg
c1ccc(CCC2(C3CCCO3)CCN(Cc3ccccc3-c3ccco3)C2)cc1 (centres unmarked) [Compound 195, 1-(2-(furan-2-yl)benzyl)-3-phenethyl-3-(tetrahydrofuran-2-yl)pyrrolidine] | > 10 mg/kg
Clc1ccccc1CN1CCC(CCc2ccccc2)(C2CCCO2)C1 (centres unmarked) [Compound 196, 1-(2-chlorobenzyl)-3-phenethyl-3-(tetrahydrofuran-2-yl)pyrrolidine] | > 10 mg/kg
Cc1nc(CN2CCC(CCc3ccccc3)(C3CCCO3)C2)cs1 (centres unmarked) [Compound 197, 2-methyl-4-((3-phenethyl-3-(tetrahydrofuran-2-yl)pyrrolidin-1-yl)methyl)thiazole] | > 10 mg/kg
Cn1cc(CN2CCC(CCc3ccccc3)(C3CCCO3)C2)cn1 (centres unmarked) [Compound 198, 1-methyl-4-((3-phenethyl-3-(tetrahydrofuran-2-yl)pyrrolidin-1-yl)methyl)-1H-pyrazole] | < 10 mg/kg
Fc1ccc(-n2cccn2)c(CN2CCC(CCc3ccccc3)(C3CCCO3)C2)c1 (centres unmarked) [Compound 199, 1-(4-fluoro-2-((3-phenethyl-3-(tetrahydrofuran-2-yl)pyrrolidin-1-yl)methyl)phenyl)-1H-pyrazole] | > 10 mg/kg
CC(=O)Nc1ccc(CN2CCC(CCc3ccccc3)(C3(C)CCCO3)C2)cc1 (centres unmarked) [Compound 200, N-(4-((3-(2-methyltetrahydro-furan-2-yl)-3-phenethylpyrrolidin-1-yl)methyl)phenyl)acetamide] | < 10 mg/kg
CC(=O)Nc1ccc(CN2CCC(CCc3ccccc3)(C3OCC3(C)C)C2)cc1 (centres unmarked) [Compound 201, N-(4-((3-(3,3-dimethyloxetan-2-yl)-3-phenethylpyrrolidin-1-yl)methyl)phenyl)acetamide] | < 10 mg/kg
CC(=O)Nc1ccc(CN2CCC(CCc3ccccc3)(C3C=C(C)CO3)C2)cc1 (centres unmarked) [Compound 202, N-(4-((3-(4-methyl-2,5-dihydrofuran-2-yl)-3-phenethylpyrrolidin-1-yl)methyl)phenyl)acetamide] | < 10 mg/kg
CC(=O)Nc1ccc(CN2CCC(CCc3ccccc3)(c3cc(C)co3)C2)cc1 (centres unmarked) [Compound 203, N-(4-((3-(4-methylfuran-2-yl)-3-phenethylpyrrolidin-1-yl)methyl)phenyl)acetamide] | > 10 mg/kg
CCOC[C@@]1(CCc2ccccc2)CCN(Cc2ccc(NC(C)=O)cc2)C1 [Compound 204, (S)-N-(4-((3-(ethoxymethyl)-3-phenethylpyrrolidin-1-yl)methyl)phenyl)acetamide] | > 10 mg/kg
CCOC[C@]1(CCc2ccccc2)CCN(Cc2ccc(NC(C)=O)cc2)C1 [Compound 205, (R)-N-(4-((3-(ethoxymethyl)-3-phenethylpyrrolidin-1-yl)methyl)phenyl)acetamide] | < 10 mg/kg
CCOCC1(CCc2ccccc2)CCN(Cc2ccc(Nc3cnccn3)cc2)C1 (centres unmarked) [Compound 206, N-(4-((3-(ethoxymethyl)-3-phenethylpyrrolidin-1-yl)methyl)phenyl)pyrazin-2-amine] | > 10 mg/kg
CCOCC1(CCc2ccccc2)CCN(Cc2ccc(Nc3ncccn3)cc2)C1 (centres unmarked) [Compound 207, N-(4-((3-(ethoxymethyl)-3-phenethylpyrrolidin-1-yl)methyl)phenyl)pyri-midin-2-amine] | > 10 mg/kg
CC(=O)Nc1ccc(CN2CCC(CCc3ccccc3)(C3CCCCO3)C2)cc1 (centres unmarked) [Compound 208, N-(4-((3-phenethyl-3-(tetrahydro-2H-pyran-2-yl)pyrrolidin-1-yl)methyl)phenyl)acetamide] | < 10 mg/kg
c1ccc(CCC2(C3CCCCO3)CCN(Cc3ccccc3-c3cccs3)C2)cc1 (centres unmarked) [Compound 209, 3-phenethyl-3-(tetrahydro-2H-pyran-2-yl)-1-(2-(thiophen-2-yl)benzyl)pyrrolidine] | > 10 mg/kg
Clc1ccccc1CN1CCC(CCc2ccccc2)(C2CCCCO2)C1 (centres unmarked) [Compound 210, 1-(2-chlorobenzyl)-3-phenethyl-3-(tetrahydro-2H-pyran-2-yl)pyrrolidine] | > 10 mg/kg
Cc1nc(CN2CCC(CCc3ccccc3)(C3CCCCO3)C2)cs1 (centres unmarked) [Compound 211, 2-methyl-4-((3-phenethyl-3-(tetrahydro-2H-pyran-2-yl)pyrrolidin-1-yl)methyl)thiazole] | > 10 mg/kg
c1ccc(CCC2(C3CCCO3)CCN(Cc3cn[nH]c3)C2)cc1 (centres unmarked) [Compound 212, 4-((3-phenethyl-3-(tetrahydrofuran-2-yl)pyrrolidin-1-yl)methyl)-1H-pyrazole] | > 10 mg/kg
Cn1ccc(CN2CCC(CCc3ccccc3)(C3CCCO3)C2)n1 (centres unmarked) [Compound 214, 1-methyl-3-((3-phenethyl-3-(tetrahydrofuran-2-yl)pyrrolidin-1-yl)methyl)-1H-pyrazole] | > 10 mg/kg

SMILES | ED50
Cn1nccc1CN1CCC(CCc2ccccc2)(C2CCCO2)C1 (stereo not drawn) [Compound 215, l-methyl-5-((3-phenethyl-3-(tetrahydrofuran-2-yl)pyrrolidin-1-yl)methyl)-1H-pyrazole] | < 10 mg/kg
CC(=O)Nc1ccc(CN2CCC(CCc3ccccc3)(C3OCC=C3C)C2)cc1 (centres unmarked) [Compound 216, N-(4-((3-(3-methyl-2,5-dihydrofuran-2-yl)-3-phenethylpyrrolidin-1-yl)methyl)phenyl)acetamide] | < 10 mg/kg
CCOCC1(CCc2ccccc2)CCN(Cc2cnn(C)c2)C1 (centres unmarked) [Compound 217, 4-((3-(ethoxymethyl)-3-phenethylpyrrolidin-1-yl)methyl)-1-methyl-1H-pyrazole] | < 10 mg/kg
c1ccc(CCC2(C3CCCO3)CCN(Cc3cccc(-c4ccco4)c3)C2)cc1 (centres unmarked) [Compound 219] | > 10 mg/kg
c1ccc(CCC2(C3CCCO3)CCN(Cc3ccc(-c4ccco4)cc3)C2)cc1 (centres unmarked) [Compound 220] | > 10 mg/kg
Cn1cncc1CN1CCC(CCc2ccccc2)(C2CCCO2)C1 (centres unmarked) [Compound 221, 1-methyl-5-((3-phenethyl-3-(tetrahydrofuran-2-yl)pyrrolidin-1-yl)methyl)-1H-imidazole] | > 10 mg/kg
Cn1ccnc1CN1CCC(CCc2ccccc2)(C2CCCO2)C1 (stereo not drawn) [Compound 222, l-methyl-2-((3-phenethyl-3-(tetrahydrofuran-2-yl)pyrrolidin-1-yl)methyl)-1H-imidazole] | > 10 mg/kg
COc1ccsc1CN1CCC(CCc2ccccc2)(C2CCCO2)C1 (centres unmarked) [Compound 223, 1-((3-methoxythiophen-2-yl)methyl)-3-phenethyl-3-(tetrahydrofuran-2-yl)pyrrolidine] | > 10 mg/kg
Cn1ccc(CN2CCC(CCc3ccccc3)(C3CCCO3)C2)c1 (centres unmarked) [Compound 224, 1-methyl-3-((3-phenethyl-3-(tetrahydrofuran-2-yl)pyrrolidin-1-yl)methyl)-1H-pyrrole] | > 10 mg/kg
c1ccc(CCC2(C3CCCO3)CCN(Cc3ccccn3)C2)cc1 (centres unmarked) [Compound 225, 2-((3-phenethyl-3-(tetrahydrofuran-2-yl)pyrrolidin-1-yl)methyl)pyridine] | > 10 mg/kg
c1ccc(CCC2(C3CCCO3)CCN(Cc3cccnc3)C2)cc1 (centres unmarked) [Compound 226, 3-((3-phenethyl-3-(tetrahydrofuran-2-yl)pyrrolidin-1-yl)methyl)pyridine] | < 10 mg/kg
Cn1cccc1CN1CCC(CCc2ccccc2)(C2CCCO2)C1 (centres unmarked) [Compound 227, 1-methyl-2-((3-phenethyl-3-(tetrahydrofuran-2-yl)pyrrolidin-1-yl)methyl)-1H-pyrrole] | > 10 mg/kg
c1ccc(CCC2(C3CCCO3)CCN(Cc3ccnn3-c3ccccc3)C2)cc1 (centres unmarked) [Compound 228, 5-((3-phenethyl-3-(tetrahydrofuran-2-yl)pyrrolidin-1-yl)methyl)-1-phenyl-1H-pyrazole] | > 10 mg/kg
c1ccc(CCC2(C3CCCO3)CCN(CC3CCCO3)C2)cc1 (centres unmarked) [Compound 229, 3-phenethyl-3-(tetrahydrofuran-2-yl)-1-((tetrahydrofuran-2-yl)methyl)pyrrolidine] | > 10 mg/kg
c1ccc(CCC2(C3CCCO3)CCN(CC3CCOC3)C2)cc1 (centres unmarked) [Compound 230, 3-phenethyl-3-(tetrahydrofuran-2-yl)-1-((tetrahydrofuran-3-yl)methyl)pyrrolidine] | > 10 mg/kg
Cc1ncc(CN2CCC(CCc3ccccc3)(C3CCCO3)C2)s1 (centres unmarked) [Compound 231, 2-methyl-5-((3-phenethyl-3-(tetrahydrofuran-2-yl)pyrrolidin-1-yl)methyl)thiazole] | < 10 mg/kg
CCOCC1(CCc2ccsc2)CCN(Cc2cnn(C)c2)CC1 [Compound 232, 4-(ethoxymethyl)-1-((1-methyl-1H-pyrazol-4-yl)methyl)-4-(2-(thiophen-3-yl)ethyl)piperidine] | < 10 mg/kg
CCOCC1(CCc2cccs2)CCN(Cc2cnn(C)c2)CC1 [Compound 233, 4-(ethoxymethyl)-1-((1-methyl-1H-pyrazol-4-yl)methyl)-4-(2-(thiophen-2-yl)ethyl)piperidine] | < 10 mg/kg
CCOC[C@]1(CCc2ccccc2)CCN(Cc2cnn(C)c2)C1 [Compound 234, (R)-4-((3-(ethoxymethyl)-3-phenethylpyrrolidin-1-yl)methyl)-1-methyl-1H-pyrazole] | > 10 mg/kg
CCOC[C@@]1(CCc2ccccc2)CCN(Cc2cnn(C)c2)C1 [Compound 235, (S)-4-((3-(ethoxymethyl)-3-phenethylpyrrolidin-1-yl)methyl)-1-methyl-1H-pyrazole] | < 10 mg/kg
c1ccc(CCC2(C3CCCO3)CCN(Cc3ccncc3)C2)cc1 (centres unmarked) [Compound 236, 4-((3-phenethyl-3-(tetrahydrofuran-2-yl)pyrrolidin-1-yl)methyl)pyridine] | > 10 mg/kg
c1ccc(CCC2(C3CCCO3)CCN(Cc3cncnc3)C2)cc1 (centres unmarked) [Compound 237, 5-((3-phenethyl-3-(tetrahydrofuran-2-yl)pyrrolidin-1-yl)methyl)pyrimidine] | > 10 mg/kg
